Results on three compounds are retold here after US8507408B2 (Dow Global Technologies LLC, priority 2010, dated 2013).

The % Inhibition is the percentage by which the read-out fell short of the control. A word on the EC50: it is the concentration needed to bring the measured effect to its halfway point.

In brackets after ≈: the same amount, converted by molar mass. Where two headings read alike, the source gives them in different places.

One series concerns ApCh. The series can be described thus: Fungal efficacy on dry paint film (Modified ASTM 5590). The series is classed as cell-based, Aureobasidium pullulans, Cladosporium herbarum. The following applies: for % Inhibition: at the total conc; for MIC: total actives in paint, read-out: Total conc (minimum inhibitory concentration chosen for SI). The protocol:
(§1) A single biocide or blend of biocides was post added into white acrylic latex paint free of biocides to give a maximum total active ingredient/s concentration tested. This paint was then diluted with a biocide free acrylic latex paint to give targeted concentrations for the testing. Depending on the type of biocide blends tested, the total biocides concentrations varies from 400 to 3300 ppm. After biocides addition or dilution, each sample was hand mixed for at least a minute until uniformity was achieved. Each of the paint samples as well as a control sample (containing no biocide) were used to prepare films on black plastic-vinyl chloride/acetate copolymer panels (Leneta Company, Mahwah, N.J.) using a 0.0762 mm (3 mil) bird bar applicator. The panels were thoroughly dried for at least 2 days avoiding direct exposure to sunlight. Square discs (0.5 inch^2; 1.27 cm^2) were cut out from each panel and were used as the substrate for fungal and algal efficacy tests. This sample size allowed for an agar border when the sample disc was placed into the well of the test plate. Each sample was tested in duplicate.
(§2) The appropriate media (BOLD'S 3N for Chlorophytes, BG-11 for Cyanobacteria, and PDA for fungi) were used to support microbial growth. The test plates were maintained at room temp (25° C.-26° C.), in a cycled light-dark environment, for four weeks for algae. Plates for fungal challenge tests were maintained at 30° C. for four weeks. At the end of the incubation period the samples were scored for percent area covered by visible microbial growth.
ASTM 5590 is a standard accelerated test method for determining resistance of various coatings (including paints) to fungal defacement. To accommodate for high-throughput screening, this method was scaled down from petri plates to 6-well plates. To set up the test, an agar plug was placed at the bottom of each well of the sterile 6-well plate. A single coupon was placed with a pair of sterile forceps at the center of the agar plug (on top) with the painted surface facing upwards. Fungal inoculums were prepared by mixing equal concentrations (approximately 1×10^6 cfu/ml) and equal volumes (depending on number of samples to be tested) of like growing organisms. For this synergy study, three pools of mixed fungi were prepared as the test inoculum. Cladosporium herbarum was mixed with Trichoderma viride, Aspergillus niger was mixed with Penicillium funiculosum and Alternaria alternata was mixed with Aureobasidium pullulans. […] The total percent area covered was evaluated and recorded at the end of each week and recorded in increments of 5%.
The SI is calculated based on F. C. […]

For another series, the system named is Gs + Os. The series can be described thus: Algal efficacy on dry paint film (Modified ASTM 5589). The settings on record: for MIC: total actives in paint, read-out: Total conc (minimum inhibitory concentration chosen for SI). The class given is cell-based, Gloeocapsa sp. and Oscillatoria sp. The protocol: as §1, §2
(§3) ASTM 5589 is a standard accelerated test method for determining resistance of various coatings (including paints) to algal defacement. To accommodate for high-throughput screening, this method was scaled down from petri plates to 6-well plates. A single coupon was placed with a pair of sterile forceps at the center of the agar plug (on top) with the painted surface facing upwards. Algal inoculums were prepared by mixing equal concentrations (approximately 1×10^6 cfu/ml) and equal volumes (depending on number of samples to be inoculated) of like growing organisms.
(§4) In this synergy study, three pool of mixed algae were prepared as the test inoculum, Gloeocapsa sp. and Oscillatoria sp. a mix of cyanobacteria grown on BG-11 media; Chlorella sp., Chlorella kessleri, and Nostoc commune are unicellular chlorphytes that were mixed and grown on Bold media; Trentepohlia aurea, Tretepohlia odorata, and Calotrix parientina are filamentous algae that were mixed and grown on Bold media.
(§5) Each well that contained a tested coupon was inoculated with 400 μl of organism mixture (approximately 1×10^6 cfu/ml) making sure that the whole surface (paint film as well as the agar surrounding it) was evenly covered. The plates were incubated at room temp (25° C.-26° C.) with cyclic exposure to light (OTT-Lite model #OTL4012P, 40 Watt, 26 KLumen) and dark phases, for a period of four weeks. The total area covered was evaluated at the end of each week according to percent area covered in 5% increments.
(§6) The SI is calculated based on F. C. Kull et.
(§7) NE=no end point at the concentration tested that will meet the percent inhibition criteria set in each SI calculation.

The next series relates to AaTv. The series can be described thus: Fungal efficacy on dry paint film (Modified ASTM 5590). The series is classed as cell-based, Alternaria alternata, Trichoderma viride. The following applies: for % Inhibition: at the total conc; for MIC: total actives in paint, read-out: Total conc (minimum inhibitory concentration chosen for SI).
For the next series, the system named is Cs + Ck + Nc. The series can be described thus: Algal efficacy on dry paint film (Modified ASTM 5589). The settings on record: for MIC: Nostoc commune, total actives in paint, read-out: Total conc (minimum inhibitory concentration chosen for SI). The class given is cell-based, Chlorella sp., Chlorella kessleri, and Nostoc commune. How it is done:
as §1, §2, §3, §4, §5, §6, §7

The test system of another series is An + Pf. The series can be described thus: Fungal efficacy on dry paint film (Modified ASTM 5590). The class given is cell-based, Aspergillus niger, Penicillium funiculosum. The following applies: for MIC: total actives in paint, read-out: Total conc (minimum inhibitory concentration chosen for SI). The protocol: as §1, §2
(§8) ASTM 5590 is a standard accelerated test method for determining resistance of various coatings (including paints) to fungal defacement. To accommodate for high-throughput screening, this method was scaled down from petri plates to 6-well plates. To set up the test, an agar plug was placed at the bottom of each well of the sterile 6-well plate. A single coupon was placed with a pair of sterile forceps at the center of the agar plug (on top) with the painted surface facing upwards. Fungal inoculums were prepared by mixing equal concentrations (approximately 1×10^6 cfu/ml) and equal volumes (depending on number of samples to be tested) of like growing organisms. For this synergy study, three pools of mixed fungi were prepared as the test inoculum. Cladosporium herbarum was mixed with Trichoderma viride, Aspergillus niger was mixed with Penicillium funiculosum and Alternaria alternata was mixed with Aureobasidium pullulans. Each well was inoculated with 400 microliter of organism mixture (approximately 1×10^6 cfu/ml) making sure that the whole surface (paint film as well as the agar surrounding it) was evenly covered. The plates were incubated at 30° C. in presence of moisture, for a period of four weeks. The total percent area covered was evaluated and recorded at the end of each week and recorded in increments of 5%.
as §6, §7

In the next series the test system is Cp + To + Ta. The series can be described thus: Algal efficacy on dry paint film (Modified ASTM 5589). The series is classed as cell-based. The settings on record: for Total conc (minimum inhibitory concentration chosen for SI): total actives in paint. How it is done:
as §1, §2, §3, §4, §5, §6, §7

In series [1] the test system is green algae (Selenastrum capricornutum). The following applies: cited from earlier work; for EbC50: median effective concentration for biomass.
Another series deals with TV + Ch. The experiment in a line: Fungal efficacy on dry paint film (Modified ASTM 5590). The class given is cell-based, Trichoderma viride, Cladosporium herbarum. The settings on record: four weeks. The protocol:
as §1, §2, §8, §6

Series [2] deals with diatom (Navicula pelliculosa). The following applies: 7 day; cited from earlier work.
Series [3] relates to marine algae (Skeletonema costatum). The following applies: cited from earlier work.
For series [4] the following is noted: cited from earlier work.
Series [5] concerns blue-green algae (Anabaena flos-aquae). The settings on record: 7 day; cited from earlier work.
In a further series the test system is Aa + Ap. The experiment in a line: Fungal efficacy on dry paint film (Modified ASTM 5590). The following applies: four weeks. The class given is cell-based, Alternaria alternata, Aureobasidium pullulans. How it is done: as §1, §2, §8, §6
Where [6] appears, read: Zinc Glyphosate with DCOIT study.
[7] abbreviates: Zinc Glyphosate with OIT study, NE=no end point at the concentration tested.
Setting [8] is: Zinc Glyphosate with DCOIT study, at the total conc.
The mark [9] stands for this setting: Zinc Glyphosate with OIT study, at the total conc.

Turning to `CCCCCCCCn1sc(Cl)c(Cl)c1=O` [DCOIT, 4,5-dichloro-2-n-octyl-4-isothiazolin-3-one], the “% Inhibition” value in the series with ApCh (setting [6]) was found to be 40%; with ApCh (Zinc Glyphosate with OIT study), 40%; with Gs + Os (setting [8]), 60%; in the series on Gs + Os (setting [9]), 80%; with AaTv (setting [6]) it was 40%; with AaTv (Zinc Glyphosate with OIT study) it was 100%. In addition, the “% Inhibition” value with Cs + Ck + Nc (setting [8]) came to 20%; in the series with Cs + Ck + Nc (setting [9]) it was 100%; with An + Pf (setting [8]), 80%; with An + Pf (setting [9]), 50%; in the series on Cp + To + Ta (setting [8]) it was 80%; with Cp + To + Ta (setting [9]), 80%. The MIC worked out at 575 µg/mL with ApCh (setting [6]); 900 µg/mL with ApCh (setting [7]); 826 µg/mL with Gs + Os (setting [6]); 900 µg/mL in the series with Gs + Os (setting [7]); 288 µg/mL (≈ 1020 µM) in the series on AaTv (setting [6]); 450 µg/mL (≈ 1590 µM) in the series with AaTv (setting [7]). Also, the MIC in the series with Cs + Ck + Nc (setting [6]) was found to be 575 µg/mL; in the series on Cs + Ck + Nc (Zinc Glyphosate with OIT study) it was 900 µg/mL; in the series on An + Pf (setting [6]) it was 1150 µg/mL; with An + Pf (Zinc Glyphosate with OIT study), 450 µg/mL. Further, the figures for the “Total conc (minimum inhibitory concentration chosen for SI)” value in the series with Cp + To + Ta (setting [6]) and in the series on Cp + To + Ta (Zinc Glyphosate with OIT study) were 575 ppm and 1350 ppm, respectively.

In the case of `O=C(O)CNCP(=O)(O)O` [Glyphosate, N-(phosphonomethyl)glycine], the EbC50 in [1] (72 hr) is 485 mg/L; in series [1] (7 day), 13.8 mg/L. Further, the ErC50 in series [1] (72 hr, median effective concentration for growth rate) was 460 mg/L. Besides, the “% Inhibition” value with Gs + Os (750 ppm in paint, four weeks) stood at 15%; in the series on Gs + Os (1500 ppm in paint, four weeks) it was 72.5%; with Gs + Os (2500 ppm in paint, four weeks) it was 90%; in the series on Cs + Ck + Nc (750 ppm in paint, four weeks), 37.5%; in the series with Cs + Ck + Nc (1500 ppm in paint, four weeks) it was 60%; with Cs + Ck + Nc (2500 ppm in paint, four weeks) it was 80%. For the same compound, the “% Inhibition” value in the series with TV + Ch (750 ppm in paint) was 2.5%; in the series with TV + Ch (1500 ppm in paint), 50%; in the series with TV + Ch (2500 ppm in paint), 72.5%; in the series on An + Pf (750 ppm in paint, four weeks) it was 0%; in the series with An + Pf (1500 ppm in paint, four weeks), 5%; in the series with An + Pf (2500 ppm in paint, four weeks), 10%. In addition, the “% Inhibition” value stood at 0% in the series with Cp + To + Ta (750 ppm in paint, four weeks); 10% in the series with Cp + To + Ta (1500 ppm in paint, four weeks); 7.5% with Cp + To + Ta (2500 ppm in paint, four weeks); 7.5% in the series on Aa + Ap (750 ppm in paint); 20% in the series on Aa + Ap (1500 ppm in paint); 67.5% with Aa + Ap (2500 ppm in paint). Moreover, the EC50 was 42 µg/mL (≈ 248 µM) in [2], 1.3 µg/mL (≈ 7.69 µM) in series [3] (96 hr), 0.64 µg/mL (≈ 3.79 µM) in series [3] (7 day) and 15 µg/mL (≈ 88.7 µM) in series [5]. Also, the solubility in water entry in series [4] is “relatively high”.

Consider Zinc Glyphosate, for which the “% Inhibition” value was 15% in the series with Gs + Os (750 ppm in paint, four weeks); 72.5% in the series on Gs + Os (1500 ppm in paint, four weeks); 90% with Gs + Os (2500 ppm in paint, four weeks); 50% in the series with TV + Ch (750 ppm in paint); 75% with TV + Ch (1500 ppm in paint); 90% with TV + Ch (2500 ppm in paint). For the same compound, the “% Inhibition” value in the series with An + Pf (750 ppm in paint, four weeks) was determined as 20%; with An + Pf (1500 ppm in paint, four weeks) it was 27.5%; in the series on An + Pf (2500 ppm in paint, four weeks) it was 30%; in the series on Aa + Ap (1500 ppm in paint), 47.5%; in the series on Aa + Ap (2500 ppm in paint), 70%.
